Measured values published in patent publication US4228298A, “15-Deoxy-16-hydroxy-16-fluoromethyl, difluoromethyl or trifluoromethyl prostaglandins of the E and F series” (American Cyanamid Company, priority 1979, dated 1980).

Experiments:
Format in all cases: in vivo
[1] = tested on: bronchospasms elicited by serotonin; test: Konzett procedure, bronchodilator activity against bronchospasms elicited by intravenous serotonin; conditions: Cavia porcellus; spasmogen serotonin; three logarithmic cumulative intravenous doses; guinea-pigs; read-out: ED 50 (spasmogen Serotonin)
Method: (§1) The bronchodilator activity for representative compounds of this invention was determined in Guinea-Pigs against bronchospasms elicited by intravenous injections of serotonin, histamine, and acetylcholine, by the Konzett procedure the details of which are those discussed by J. Lulling, P. Lievens, F. El Sayed and J. Prignot, Arzeimittel-Forschung 18, 995 (1968).
(§2) In the table which follows, bronchodilator activity for representative compounds of the invention against spasmogenic agents serotonin, histamine, and acetylcholine is expressed as an ED50 determined from the results obtained with three logarithmic cumulative intravenous doses.

[2] = tested on: bronchospasms elicited by histamine; test: Konzett procedure, bronchodilator activity against bronchospasms elicited by intravenous histamine; conditions: Cavia porcellus; spasmogen histamine; three logarithmic cumulative intravenous doses; guinea-pigs; read-out: ED 50 (spasmogen Histamine)
Method: as §1, §2

[3] = tested on: bronchospasms elicited by acetylcholine; test: Konzett procedure, bronchodilator activity against bronchospasms elicited by intravenous acetylcholine; conditions: Cavia porcellus; spasmogen acetylcholine; three logarithmic cumulative intravenous doses; guinea-pigs; read-out: ED 50 (spasmogen Acetylcholine)
Method: as §1, §2

| Compound | ED50 [1] [µg/kg] | ED50 [2] [µg/kg] | ED50 [3] [µg/kg] |
| --- | --- | --- | --- |
| CCCCC(O)(C/C=C/[C@H]1[C@H](O)CC(=O)[C@@H]1C/C=C\CCCC(=O)O)C(F)F (relative stereo) [dl-11α,16-dihydroxy-9-oxo-16-difluoromethyl-5-cis-13-trans prostadienoic acid] | 4.6 | 2.78 | 4.04 |
| CCCCC(O)(CF)C/C=C/[C@H]1[C@H](O)CC(=O)[C@@H]1C/C=C\CCCC(=O)O (relative stereo) [dl-11α,16-dihydroxy-9-oxo-16-fluoromethyl-5-cis-13-trans prostadienoic acid] | 1.38 | 2.57 | 1.94 |
| CCCCC(O)(C/C=C/[C@H]1[C@H](O)CC(=O)[C@@H]1C/C=C\CCCC(=O)O)C(F)(F)F (relative stereo) [dl-11α,16-dihydroxy-9-oxo-16-trifluoromethyl-5-cis-13-trans prostadienoic acid] | 7.96 | 4.15 | 10 |
